Assay results reported in US6596706B1, “Piperazine-cyclodextrin complexes” (Daiichi Pharmaceutical Co., Ltd., priority 1997, dated 2003).

Experiments:
[1] = Solubility of compound (1) in aqueous SBE7-β-CD solution or water, HPLC of filtered supernatant; type: physicochemical
Experimental: To an aqueous solution of a β-cyclodextrin sulfobutyl ether sodium salt (product of CyDex; hereinafter may be abbreviated as SBE7-β-CD; molecular weight 2162.01; substitution ratio: 7/21 (about 33%)) (26, 40, or 72 mM; 2.5 ml) was added an excessive amount of 3-[2-[4-(3-chloro-2-methylphenyl)-1-piperadinyl]ethyl]-5,6-dimethoxy-1-(4-imidazolylmethyl)-1H-indazole,.2HCl.3.5H2O(hereinafter may be abbreviated as compound (1); molecular weight: 631.0) (400 mg). The mixture was allowed to stand for 7 days in a 25° C. water bath. During the standing period, the mixture was sonicated once a day for 15 minutes, followed by stirring for 2 minutes. On the first, fifth, and seventh days, pH of the mixture was adjusted to 4.0 by addition of adequate amount of HCl. After pH was adjusted on the seventh day, the amount of the entirety of the mixture was adjusted to 5 ml (to thereby achieve a SBE7-β-CD concentration of […]). Six days later, the mixture was subjected to centrifugal separation, to thereby collect a supernatant. […] Similarly, the solubility of the piperazine derivative (I) for water was also determined by HPLC.
(Conditions for High Performance Liquid Chromatography (HPLC))
Mobile phase: 50 mM phosphate buffer solution (pH 5.5)/acetonitrile (1:1)
Column temperature: 40° C.

red blood cells = test: Hemolysis activity with red blood cell suspension, absorbance at 588 nm; type: cell-based; conditions: for hemolysis activity of compound (1): 0.6 mM compound (1), more suppressed at higher cyclodextrin concentration, FIG. 1
Experimental: To 10 mM isotonic phosphate buffer solution (pH 6.0, 2 ml) containing SBE7-β-CD or hydroxypropyl-β-cyclodextrin (product of Nihon Shokuhin Kako; hereinafter may be abbreviated as HP-β-CD; molecular weight 1413; substitution ratio: 4.8/21 (about 23%)) at a different concentration and 0.6 mM compound (1) (concentration that permits complete hemolysis) was added a suspension (0.2 ml) of red blood cells suspension (5%). The mixture was maintained for 30 minutes at 37° C. After centrifugal separation (1000× g, 5 min), oxyhemoglobin and methohemoglobin contained in the supernatant were determined based on the absorbance at 588 nm, to thereby investigate the hemolysis activity of compound (1).

COc1cc2c(CCN3CCN(c4cccc(Cl)c4C)CC3)nn(Cc3c[nH]cn3)c2cc1OC.Cl.Cl [compound (1), 3-[2-[4-(3-chloro-2-methylphenyl)-1-piperadinyl]ethyl]-5,6-dimethoxy-1-(4-imidazolylmethyl)-1H-indazole,.2HCl.3.5H2O]
Concentration of compound (1) in supernatant ([1]; Compound (1) alone, solubility for water): 14600 µM
Concentration of compound (1) in supernatant ([1]; SBE7-β-CD 13 mM, 25° C., pH 4.0): 19000 µM
Concentration of compound (1) in supernatant ([1]; SBE7-β-CD 20 mM, 25° C., pH 4.0): 25600 µM
Concentration of compound (1) in supernatant ([1]; SBE7-β-CD 36 mM, 25° C., pH 4.0): 56700 µM
concentration that permits complete hemolysis (red blood cells; 10 mM isotonic phosphate buffer pH 6.0, 30 minutes at 37° C.): 600 µM
hemolysis activity of compound (1) (red blood cells; complex formed by addition of HP-β-CD): suppressed
hemolysis activity of compound (1) (red blood cells; complex formed by addition of SBE7-β-CD): suppressed
